{"source": "patent US20090131422A1", "about": "“Salts of an IKK inhibitor” (Millennium Pharmaceuticals, Inc., priority 2007, published 2009)", "key": {"[1]": {"assay": "Gravimetric vapor sorption (GVS)", "assay_type": "physicochemical", "conditions": "25° C.", "experimental": "Gravimetric Vapor Sorption (GVS): Gravimetric vapor sorption (GVS) data are collected using either i) a SGA-100 Water Vapor Sorption Analyzer from VTI Corporation. Sample sizes are typically 5-10 mg. A moisture adsorption/desorption isotherm is recorded by subjecting samples to a series of relative humidity (RH) steps at a constant temperature of 25° C.; or ii) a Hiden IGASorp moisture sorption analyser running CFRSorp software, IGA Systems Software V3.00.23 and IGASorp Controller Version 1.10. Sample sizes are typically 10 mg. A moisture adsorption/desorption isotherm iserformed in the following way: Samples are loaded/unloaded at typical room humidity and temperature (40% RH, 25° C.) and analysed afterwards by XRPD. The isotherm run is two complete cycles. Each cycle begins at 40% RH and using 10% RH intervals goes to 90% RH then Dry then 40% RH."}, "physchem": {"assay": "physchem", "conditions": "water", "quoted_text": "Solubility: The water solubility of the Tartrate and Mono-HCl Salt was measured at ambient temperature."}}, "note": "Where a name gives a salt, the structure may show the parent alone.", "data": [{"smiles": "C[C@@H]1CN(C(=O)CN2CC(C)(C)OC[C@H]2C(=O)Nc2cc(Cl)cc3c2[nH]c2cnccc23)C[C@H](C)O1", "note": "[Malonate Salt, (S)—N-(6-chloro-9H-pyrido[3,4-b]indol-8-yl)-4-(2-((2S,6R)-2,6-dimethylmorpholino)-2-oxoethyl)-6,6-dimethylmorpholine-3-carboxamide malonate]", "values": [{"measurement": "moisture uptake from 40-90% RH", "setting": "[1]; 40-90% RH", "result": 1.5, "unit": "wt %"}]}, {"smiles": "C[C@@H]1CN(C(=O)CN2CC(C)(C)OC[C@H]2C(=O)Nc2cc(Cl)cc3c2[nH]c2cnccc23)C[C@H](C)O1", "note": "[Mono-Hydrochloride Salt, (S)—N-(6-chloro-9H-pyrido[3,4-b]indol-8-yl)-4-(2-((2S,6R)-2,6-dimethylmorpholino)-2-oxoethyl)-6,6-dimethylmorpholine-3-carboxamide mono-hydrochloride]", "values": [{"measurement": "moisture uptake at 70% RH", "setting": "[1]; mono-hydrochloride", "result": 0.23, "unit": "%"}, {"measurement": "moisture uptake at 90% RH", "setting": "[1]; mono-hydrochloride", "result": 1.7, "unit": "%"}]}, {"smiles": "C[C@@H]1CN(C(=O)CN2CC(C)(C)OC[C@H]2C(=O)Nc2cc(Cl)cc3c2[nH]c2cnccc23)C[C@H](C)O1", "note": "[Tartrate Salt, (S)—N-(6-chloro-9H-pyrido[3,4-b]indol-8-yl)-4-(2-((2S,6R)-2,6-dimethylmorpholino)-2-oxoethyl)-6,6-dimethylmorpholine-3-carboxamide hemi-L-tartrate hydrate]", "values": [{"measurement": "moisture uptake at 70% RH", "setting": "[1]", "result": 1.3, "unit": "%"}, {"measurement": "moisture uptake at 90% RH", "setting": "[1]", "result": 2.4, "unit": "%"}, {"measurement": "hygroscopicity", "setting": "[1]; vapor sorption profile", "result": "relatively non-hygroscopic"}]}, {"smiles": "C[C@@H]1CN(C(=O)CN2CC(C)(C)OC[C@H]2C(=O)Nc2cc(Cl)cc3c2[nH]c2cnccc23)C[C@H](C)O1", "note": "[free base, (S)—N-(6-chloro-9H-pyrido[3,4-b]indol-8-yl)-4-(2-((2S,6R)-2,6-dimethylmorpholino)-2-oxoethyl)-6,6-dimethylmorpholine-3-carboxamide]", "values": [{"measurement": "solubility", "setting": "physchem", "result": "~10", "unit": "µg/mL"}]}]}
